According to PubChem BioAssay (NCI):
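Growth conditions: 96-well plates. Treatment: test compound, 48 hours, 5 concentrations. Analysis: linear interpolation between bracketing concentrations; unreached endpoints set to highest concentration. Definition used: TGI = concentration required for complete inhibition of growth.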

Tests used:
Experiment in all cases: inhibition of tumour cell growth, NCI panel, 48 h
M19-MEL melanoma = system: M19-MEL melanoma
LXFL 529 NSCLC = system: LXFL 529 NSCLC
RXF-631 renal = system: RXF-631 renal
IGROV1 ovarian = system: IGROV1 ovarian
DLD-1 colon = system: DLD-1 colon
KM20L2 colon = system: KM20L2 colon
DMS 114 small cell lung = system: DMS 114 small cell lung
SNB-78 CNS = system: SNB-78 CNS
DMS 273 small cell lung = system: DMS 273 small cell lung
BT-549 breast = system: BT-549 breast
HOP-18 NSCLC = system: HOP-18 NSCLC
XF 498 CNS = system: XF 498 CNS

Compound | TGI (IGROV1 ovarian) [µM] | TGI (BT-549 breast) [µM] | further results
COc1ccc(OC)c(NC(=O)C(=O)CC(=O)c2sc(-n3nc(-c4ccccc4)cc3-c3ccccc3)nc2C)c1 | > 100 | – | TGI (M19-MEL melanoma): > 100 µM; TGI (LXFL 529 NSCLC): > 100 µM; TGI (RXF-631 renal): > 100 µM; TGI (DLD-1 colon): > 100 µM; TGI (KM20L2 colon): > 100 µM; TGI (DMS 114 small cell lung): > 100 µM; TGI (SNB-78 CNS): > 100 µM; TGI (DMS 273 small cell lung): > 100 µM
COC(=O)c1ccc(C)cc1CC1Cc2cccc(C)c2C1=O (stereo not drawn) | > 100 | 87.6 | –
CC(=O)C1C(=O)C(=O)N(c2ccc([N+](=O)[O-])cc2)C1=O (stereo not drawn) | > 100 | > 100 | –
CCNC1=C(NC(=O)c2ccccc2)C(=O)c2ccccc2C1=O | > 100 | > 100 | –
COc1ccc(-c2csc(Cc3nc4c(Br)cc(Br)cc4c(=O)n3-c3ccc(OC)cc3)n2)cc1 | > 100 | > 100 | –
COc1ccc(OC)c(/C=C2\CCc3ccccc3C2=O)c1 | 47.8 | – | TGI (M19-MEL melanoma): 23.5 µM; TGI (LXFL 529 NSCLC): 31.8 µM; TGI (DLD-1 colon): 22.8 µM; TGI (KM20L2 colon): 9.62 µM; TGI (HOP-18 NSCLC): 57.1 µM; TGI (DMS 114 small cell lung): 5.21 µM; TGI (DMS 273 small cell lung): 12.8 µM; TGI (XF 498 CNS): 11 µM
OCCCCn1cc(Cn2ncc3c(NCc4ccccc4)ncnc32)nn1 | > 100 | > 100 | –
COC(=O)Cc1c([C@H]2[C@H](CC(=O)OC)c3ccccc3N2S(=O)(=O)c2ccc(C)cc2)[nH]c2ccccc12 | – | > 100 | –
CCS(=O)c1c2cc(OC)ccc2nc2ccc(OC)cc12 (stereo not drawn) | 10 | 31.9 | –
CCOC(=O)c1c(N2CCCC2)[nH]c(=O)c(C(c2ccc(Cl)c([N+](=O)[O-])c2)c2c(O)c(C(=O)OCC)c(N3CCCC3)[nH]c2=O)c1O | – | 51.8 | –
S=C(N/N=C/c1ccccn1)N1CC2CCC(CC2)C1 | – | 12.5 | –
O=[N+]([O-])c1ccc2sc(/C=N/c3ccccn3)cc2c1 | > 100 | > 100 | –
CCc1c(CNC2=NCCN2)c(CC)c(CNC2=NCCN2)c(CC)c1CNC1=NCCN1 | > 100 | > 100 | –
O=C(COc1ccccc1)N(C(=O)N1CCN(c2ccccc2)CC1)S(=O)(=O)c1ccccc1 | – | > 100 | –
COc1ccc(CNc2nc(NCc3ccc(OC)cc3)nc(NC3CCCC3)n2)cc1 | > 33.7 | > 31.8 | –
COC(=O)CC(C(C(=O)OC)C(=O)OC)N1C(=O)OC(c2ccccc2)C1c1ccccc1 (stereo not drawn) | > 100 | – | TGI (M19-MEL melanoma): > 100 µM; TGI (LXFL 529 NSCLC): > 100 µM; TGI (DLD-1 colon): > 100 µM; TGI (KM20L2 colon): > 100 µM; TGI (HOP-18 NSCLC): > 100 µM; TGI (DMS 114 small cell lung): > 100 µM; TGI (DMS 273 small cell lung): > 100 µM
O=c1oc2ccccc2c(O)c1C(c1ccc(-c2ccccc2)cc1)c1c(O)c2ccccc2oc1=O | > 100 | 40.4 | –
Nc1cc2ncnn2c(SCC(=O)N/N=C/C(Br)=C\c2ccccc2)n1 | 24.6 | 44.1 | –
Cc1ccc(S(=O)(=O)N/N=C2\CCC3(O)CC2(C)CCC2C3CC2(C)C)cc1 (stereo not drawn) | > 100 | > 100 | –
O=S(=O)(O)c1ccc2c(N=Nc3ccc(S(=O)(=O)O)c4ccccc34)c(O)c(S(=O)(=O)O)cc2c1 | > 100 | > 100 | –

Compound | TGI (IGROV1 ovarian) [µM] | TGI (BT-549 breast) [µM] | further results
CC1(C)c2ccccc2N2O[C@@H]3C(=O)N(c4ccccc4)C(=O)[C@@H]3C21c1ccccc1 (stereo partly drawn) | > 100 | – | TGI (M19-MEL melanoma): > 100 µM; TGI (LXFL 529 NSCLC): > 100 µM; TGI (DLD-1 colon): > 100 µM; TGI (DMS 114 small cell lung): > 100 µM; TGI (SNB-78 CNS): > 100 µM; TGI (DMS 273 small cell lung): > 100 µM; TGI (XF 498 CNS): > 100 µM
CCOC(=O)CSC1NC(C(=O)OC)CC1OC (stereo not drawn) | > 100 | > 100 | –
C/C(=N\Nc1nc2ccccc2[nH]1)c1cnccn1 | > 38.4 | > 85.3 | –
O=[N+]([O-])c1cc(N=Nc2c(O)ccc3cc(S(=O)(=O)O)ccc23)c(O)c([N+](=O)[O-])c1 | > 100 | > 100 | –
CN(/N=C/c1ccccn1)C1=NCCCN1 | > 100 | > 100 | –
CC/C(Cl)=N\OC(=O)Nc1ccc(OC)c(C)c1 | 39.1 | 34.9 | –
O=C1c2ccccc2C(=O)c2c(NC(=O)C3CC3)ccc(NC(=O)C3CC3)c21 | > 100 | > 100 | –
C=CCOCn1cc(F)c(=O)[nH]c1=O | > 100 | > 100 | –
CC(=O)NNc1nc(C)c(C(=O)NNC(=O)C(=O)Nc2c([N+](=O)[O-])ccc(C)c2C)s1 | > 100 | – | TGI (M19-MEL melanoma): > 100 µM; TGI (LXFL 529 NSCLC): > 100 µM; TGI (DLD-1 colon): > 100 µM; TGI (KM20L2 colon): > 100 µM; TGI (DMS 114 small cell lung): > 100 µM; TGI (SNB-78 CNS): > 100 µM; TGI (DMS 273 small cell lung): > 100 µM; TGI (XF 498 CNS): > 100 µM
Nc1ncc(C=O)c(NCC2(CO)CCC2)n1 | > 100 | – | –
O=C(CSCC(=O)N/N=C\c1ccc(O)c(O)c1O)N/N=C\c1ccc(O)c(O)c1O | 42.2 | – | –
c1ccc(-c2c(-c3cccs3)[nH]c(-c3cccs3)c2-c2ccccn2)nc1 | 59.3 | 41.5 | –
Nc1cccc(OCC2CCCN3CCCCC23)c1 (stereo not drawn) | – | 30.9 | –
N#CC(C#N)=c1c2ccccc2c(=C(C#N)C#N)c2ccccc12 | 30.2 | 65 | –
CSc1ccc(NC(=O)C2c3[nH]c4ccccc4c3C3CCC(C(C)(C)C)CC3C2C(=O)O)cc1 (stereo not drawn) | 51.8 | – | TGI (M19-MEL melanoma): 57.3 µM; TGI (LXFL 529 NSCLC): 31.8 µM; TGI (DLD-1 colon): 54.6 µM; TGI (KM20L2 colon): 32.6 µM; TGI (HOP-18 NSCLC): 35.9 µM; TGI (DMS 114 small cell lung): 63.4 µM; TGI (SNB-78 CNS): 53.2 µM; TGI (DMS 273 small cell lung): 30 µM; TGI (XF 498 CNS): 39.7 µM
CCC/C(Cl)=N/OC(NC(=O)OCC)(C(F)(F)F)C(F)(F)F | 30.9 | – | –
CO[C@]12S[C@@H]3CCCC[C@@]31C(C)(C)C(=O)N2c1ccccc1 | > 100 | > 100 | –
CC1(C)C(=O)C(C)(C)C1=NNC(N)=S | > 100 | – | TGI (M19-MEL melanoma): > 100 µM; TGI (LXFL 529 NSCLC): > 100 µM; TGI (RXF-631 renal): > 100 µM; TGI (KM20L2 colon): > 100 µM; TGI (DMS 114 small cell lung): > 100 µM; TGI (SNB-78 CNS): > 100 µM; TGI (DMS 273 small cell lung): > 100 µM; TGI (XF 498 CNS): > 100 µM
c1ccc(Cn2c(-c3ccc(-c4ccccc4)cc3)cc3ccccc32)cc1 | > 100 | > 100 | –
N#Cc1ccc(Oc2ccccc2)cc1C#N | > 100 | – | TGI (M19-MEL melanoma): > 100 µM; TGI (LXFL 529 NSCLC): > 100 µM; TGI (DLD-1 colon): > 100 µM; TGI (KM20L2 colon): > 100 µM; TGI (HOP-18 NSCLC): > 100 µM; TGI (DMS 114 small cell lung): 59.1 µM; TGI (SNB-78 CNS): > 100 µM; TGI (DMS 273 small cell lung): 34.5 µM; TGI (XF 498 CNS): > 100 µM
